In PubChem BioAssay AID330 (DTP/NCI, 2004):
“And” between values parts separate entries of the source, which are not always exact repeats. Identical values can stand only once. Toxic doses and inconclusive results are not listed. Rule for the calls: active = survival T/C of 150% or more; inactive = T/C below 125% in these data. Peptide text beside a SMILES is read from it. * marks the point of attachment. Cbz = O=C(OCc1ccccc1)*

Tested on: P388 leukemia ip, CD2F1 mice, survival T/C
Assay: NCI In Vivo Anticancer Drug Screen. Data for tumor model P388 Leukemia (intraperitoneal) in CD2F1 (CDF1) mice
Conditions: endpoint: median survival time, higher = longer survival
How it was run: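 Mice carrying the transplanted tumor received test compound or vehicle. Survival was recorded in each group, and the value is the treated-group measurement divided by that of the vehicle-treated control group.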

[1] = dose: 50.0 mg/kg/injection, schedule: Q01DX005 (ip), vehicle: saline
[2] = dose: 100.0 mg/kg/injection, schedule: Q01DX001 (ip), vehicle: saline with Tween-80
[3] = dose: 200.0 mg/kg/injection, schedule: Q01DX001 (ip), vehicle: saline with Tween-80
[4] = dose: 400.0 mg/kg/injection, schedule: Q01DX001 (ip), vehicle: saline with Tween-80
[5] = dose: 50.0 mg/kg/injection, schedule: Q01DX005 (ip), vehicle: saline with Tween-80
[6] = dose: 100.0 mg/kg/injection, schedule: Q01DX005 (ip), vehicle: saline with Tween-80
[7] = dose: 200.0 mg/kg/injection, schedule: Q01DX005 (ip), vehicle: saline with Tween-80
[8] = dose: 50.0 mg/kg/injection, schedule: Q01DX009 (ip), vehicle: Klucel (hydroxypropylcellulose) (HPC)
[9] = dose: 50.0 mg/kg/injection, schedule: Q01DX009 (ip), vehicle: saline
[10] = dose: 100.0 mg/kg/injection, schedule: Q01DX009 (ip), vehicle: saline
[11] = dose: 200.0 mg/kg/injection, schedule: Q01DX009 (ip), vehicle: saline
[12] = dose: 60.0 mg/kg/injection, schedule: Q01DX005 (ip), vehicle: saline with Tween-80
[13] = dose: 120.0 mg/kg/injection, schedule: Q01DX005 (ip), vehicle: saline with Tween-80
[14] = dose: 240.0 mg/kg/injection, schedule: Q01DX005 (ip), vehicle: saline with Tween-80
[15] = dose: 12.5 mg/kg/injection, schedule: Q01DX009 (ip), vehicle: saline
[16] = dose: 25.0 mg/kg/injection, schedule: Q01DX009 (ip), vehicle: saline
[17] = dose: 50.0 mg/kg/injection, schedule: Q01DX009 (ip), vehicle: saline with Tween-80
[18] = dose: 50.0 mg/kg/injection, schedule: Q01DX005 (ip), vehicle: Klucel (hydroxypropylcellulose) (HPC)
[19] = dose: 100.0 mg/kg/injection, schedule: Q01DX005 (ip), vehicle: Klucel (hydroxypropylcellulose) (HPC)
[20] = dose: 200.0 mg/kg/injection, schedule: Q01DX005 (ip), vehicle: Klucel (hydroxypropylcellulose) (HPC)

Measured: T/C

CCCCN(CCCC)P1(=O)OP(=O)(N(CCCC)CCCC)OP(=O)(N(CCCC)CCCC)O1 (stereo not given)
inactive: dose: 12.5 mg/kg/injection, schedule: Q01DX005 (ip), vehicle: saline 97 % of control | dose: 25.0 mg/kg/injection, schedule: Q01DX005 (ip), vehicle: saline 101 % of control | [1] 101 % of control and 96 % of control

Cc1ccc(C2=C/C(=C/c3ccc(N(CCC#N)CCC#N)cc3)C(=O)O2)c(C)c1
inactive: [2] 95 % of control | [3] 95 % of control | [4] 87 % of control

O=Nc1c2cc3ccccc3[nH]c-2c2ccccc12
inactive: [5] 101 % of control | [6] 93 % of control | [7] 97 % of control

O=C(NP(=O)(O)NC(Cc1ccccc1)C(=O)O)OCc1ccccc1 (stereo not given)
inactive: [1] 106 % of control | dose: 100.0 mg/kg/injection, schedule: Q01DX005 (ip), vehicle: saline 109 % of control | dose: 200.0 mg/kg/injection, schedule: Q01DX005 (ip), vehicle: saline 102 % of control

NNC1=Nc2ccccc2N=C2CCSCC21 (stereo not given)
inactive: [8] 97 % of control | dose: 100.0 mg/kg/injection, schedule: Q01DX009 (ip), vehicle: Klucel (hydroxypropylcellulose) (HPC) 112 % of control | dose: 200.0 mg/kg/injection, schedule: Q01DX009 (ip), vehicle: Klucel (hydroxypropylcellulose) (HPC) 108 % of control

O=C1c2c3c(c4c(c2C(=O)c2c5c(c6c(c21)CCC6)CCC5)CCC4)CCC3
inactive: dose: 10.0 mg/kg/injection, schedule: Q01DX009 (ip), vehicle: saline with Tween-80 95 % of control | dose: 20.0 mg/kg/injection, schedule: Q01DX009 (ip), vehicle: saline with Tween-80 96 % of control | dose: 40.0 mg/kg/injection, schedule: Q01DX009 (ip), vehicle: saline with Tween-80 99 % of control

[Cl][Cr]([Cl])[Cl].[NH-]CC[N-]CC[NH-]
inactive: [9] 97 % of control | [10] 109 % of control | [11] 115 % of control

CC1(C)COC(c2ccc(Br)cc2)=N1
inactive: dose: 25.0 mg/kg/injection, schedule: Q01DX009 (ip), vehicle: other 101 % of control | dose: 50.0 mg/kg/injection, schedule: Q01DX009 (ip), vehicle: other 97 % of control | dose: 100.0 mg/kg/injection, schedule: Q01DX009 (ip), vehicle: other 102 % of control | dose: 200.0 mg/kg/injection, schedule: Q01DX009 (ip), vehicle: other 104 % of control

C=C(C)OC1NC(=O)Oc2ccccc21 (stereo not given)
inactive: [12] 98 % of control | [13] 109 % of control | [14] 100 % of control

CCCCCCCCCCCCCCCC[N+](C)(C)CCN
inactive: [15] 93 % of control | [16] 99 % of control | [9] 106 % of control

O=[N+]([O-])c1c[nH]n2c([N+](=O)[O-])cnc12
inactive: dose: 6.25 mg/kg/injection, schedule: Q01DX009 (ip), vehicle: other 91 % of control | dose: 12.5 mg/kg/injection, schedule: Q01DX009 (ip), vehicle: other 101 % of control

Cc1c(C#N)c(=O)[nH]c2ccc([N+](=O)[O-])cc12
inactive: [12] 94 % of control | [13] 93 % of control | [14] 100 % of control

CC(c1ccc(N2Cc3ccccc3C2=O)cc1)C(O)C(N)=O (stereo not given)
inactive: [5] 89 % of control | [6] 92 % of control | [7] 89 % of control

S=C(Nc1ccc(Cl)cc1)Nc1ncccn1
inactive: dose: 12.5 mg/kg/injection, schedule: Q01DX009 (ip), vehicle: Klucel (hydroxypropylcellulose) (HPC) 98 % of control | dose: 25.0 mg/kg/injection, schedule: Q01DX009 (ip), vehicle: Klucel (hydroxypropylcellulose) (HPC) 103 % of control | [8] 100 % of control and 97 % of control

CN(C)c1ccc(C2(C(=O)O)CCCC(C)(C)C2)cc1 (stereo not given)
inactive: dose: 100.0 mg/kg/injection, schedule: Q01DX001 (ip), vehicle: Klucel (hydroxypropylcellulose) (HPC) 95 % of control | dose: 200.0 mg/kg/injection, schedule: Q01DX001 (ip), vehicle: Klucel (hydroxypropylcellulose) (HPC) 95 % of control | dose: 400.0 mg/kg/injection, schedule: Q01DX001 (ip), vehicle: Klucel (hydroxypropylcellulose) (HPC) 92 % of control

Cc1cc(C)c[n+]([O-])c1
inactive: [15] 111 % of control | [16] 111 % of control | [9] 111 % of control

CC1CCCN2C(=O)CN(C3CCCCC3)CC(=O)N12 (stereo not given)
inactive: [5] 100 % of control | [6] 100 % of control | [7] 100 % of control

COC(NC(N)=O)C(=O)O (stereo not given)
inactive: [17] 99 % of control | dose: 100.0 mg/kg/injection, schedule: Q01DX009 (ip), vehicle: saline with Tween-80 99 % of control | dose: 200.0 mg/kg/injection, schedule: Q01DX009 (ip), vehicle: saline with Tween-80 99 % of control

COc1ccc2nc(NCCNCCO)cc(NCCNCCO)c2c1
inactive: dose: 30.0 mg/kg/injection, schedule: Q01DX005 (ip), vehicle: water 98 % of control | dose: 60.0 mg/kg/injection, schedule: Q01DX005 (ip), vehicle: water 97 % of control

CC[CH2][Sn](=[O])[c]1ccccc1
inactive: [15] 99 % of control | [16] 105 % of control | [9] 98 % of control and 123 % of control | [11] 96 % of control

CCCn1cnc2c(sc3ccccc32)c1=O
inactive: [18] 101 % of control | [19] 93 % of control | [20] 93 % of control

CC(C)C(NC(=O)C(Cl)Cl)C(=O)O (stereo not given)
inactive: [18] 96 % of control | [19] 94 % of control | [20] 96 % of control

NC(=O)C(Cc1ccccc1)NC(=O)C(Cc1ccccc1)NC(=O)C(Cc1ccccc1)NC(=O)OCc1ccccc1 (stereo not drawn) (Cbz-Phe-Phe-Phe-NH2; configuration not given here)
inactive: [5] 91 % of control | [6] 97 % of control | [7] 102 % of control

CC(=O)OC1C=CCC2C(=O)OC(=O)C12 (stereo not given)
inactive: dose: 30.0 mg/kg/injection, schedule: Q01DX005 (ip), vehicle: Klucel (hydroxypropylcellulose) (HPC) 103 % of control and 90 % of control | dose: 60.0 mg/kg/injection, schedule: Q01DX005 (ip), vehicle: Klucel (hydroxypropylcellulose) (HPC) 100 % of control | dose: 120.0 mg/kg/injection, schedule: Q01DX005 (ip), vehicle: Klucel (hydroxypropylcellulose) (HPC) 105 % of control and 90 % of control

OCN(CO)c1nc(N(CO)CO)nc(N(CO)CO)n1
inactive: dose: 6.3 mg/kg/injection, schedule: Q01DX009 (ip), vehicle: saline with Tween-80 109 % of control | dose: 12.5 mg/kg/injection, schedule: Q01DX009 (ip), vehicle: saline with Tween-80 106 % of control | [17] 108 % of control

COC(=O)/C(=C/c1ccccc1)N=[N+]=[N-]
inactive: [12] 107 % of control | [13] 110 % of control | [14] 117 % of control

COC(=O)C1=NC(=N)N=C(C(=O)OC)C12C(=O)Cc1ccccc12 (stereo not given)
inactive: [12] 103 % of control | [13] 100 % of control

CN1CCC/C1=C/C(=O)c1cccc([N+](=O)[O-])c1
inactive: dose: 100.0 mg/kg/injection, schedule: Q04DX003 (ip), vehicle: Klucel (hydroxypropylcellulose) (HPC) 108 % of control | dose: 200.0 mg/kg/injection, schedule: Q04DX003 (ip), vehicle: Klucel (hydroxypropylcellulose) (HPC) 106 % of control

COC(=O)C1=CCOc2c1c(C(=O)OC)nn2C
inactive: [5] 97 % of control | [6] 98 % of control | [7] 96 % of control

CC(C)(CN)SCc1ccccc1
inactive: [16] 100 % of control | dose: 25.0 mg/kg/injection, schedule: Q04DX003 (ip), vehicle: saline 100 % of control | [9] 100 % of control | dose: 50.0 mg/kg/injection, schedule: Q04DX003 (ip), vehicle: saline 86 % of control | [10] 100 % of control | dose: 100.0 mg/kg/injection, schedule: Q04DX003 (ip), vehicle: saline 90 % of control

CC(=O)Oc1cccn2c(C(=O)C(=O)c3ccc4c(OC(C)=O)cccn34)ccc12
inactive: [18] 92 % of control | [19] 86 % of control | [20] 94 % of control

COc1cc2nn(-c3ccccc3N)nc2cc1OC
inactive: [12] 106 % of control | [13] 100 % of control | [14] 102 % of control

c1ccc2c(c1)[nH]c1c2c(N2CCOCC2)nn2nnnc12
inactive: [2] 107 % of control | [3] 106 % of control | [4] 109 % of control
